Among the data in patent US20240018133A1, “MODULATORS OF THE INTEGRATED STRESS PATHWAY” (Calico Life Sciences LLC, priority 2019, published 2024) are EC50 values, retold here.

In this assay the test system is ATF4 luciferase reporter (human full-length ATF4 5'-UTR fused to firefly luciferase) in HEK293T cells. Briefly: ATF4-Luc assay (in vitro model of VWMD): HEK293T cells carrying ATF4 luciferase reporter, tunicamycin-treated. It is filed as cell-based. The following applies: Homo sapiens, HEK-293T, 1 μg/mL tunicamycin, 7 hours, One Glo luminescence. The method, boiled down:
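Reporter cells were stably generated by retroviral transduction and puromycin selection, then seeded at 30,000 cells/well. Next day, cells received 1 μg/mL tunicamycin with 200 nM test compound for 7 h, and luciferase luminescence was read with a one-step reagent. Values reported as EC50.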
With `O=C(COc1ccc(Cl)c(F)c1)NC12CC(NC(=O)[C@H]3C[C@@H](O)c4cc(Cl)ccc4O3)(C1)C2` [Compound 196, (2R,4R)-6-chloro-N-{3-[2-(4-chloro-3-fluorophenoxy)acetamido]bicyclo[1.1.1]pentan-1-yl}-4-hydroxy-3,4-dihydro-2H-1-benzopyran-2-carboxamide], the EC50 is less than 10 nM.

With `O=C(NC12CC(NC(=O)[C@H]3C[C@@H](O)c4cc(Cl)ccc4O3)(C1)C2)c1cnn(-c2ccccc2)c1` [Compound 390, N-(3-{[(2R,4R)-6-chloro-4-hydroxy-3,4-dihydro-2H-1-benzopyran-2-carbonyl]amino}bicyclo[1.1.1]pentan-1-yl)-1-phenyl-1H-pyrazole-4-carboxamide], the EC50 fell in the range of 10 to 50 nM.

Turning to `O=C(NC12CC(NC(=O)[C@H]3C[C@@H](O)c4cc(Cl)ccc4O3)(C1)C2)c1cnc(C2CNC2)o1` [Compound 389, 2-(azetidin-3-yl)-N-(3-{[(2R,4R)-6-chloro-4-hydroxy-3,4-dihydro-2H-1-benzopyran-2-carbonyl]amino}bicyclo[1.1.1]pentan-1-yl)-1,3-oxazole-5-carboxamide], the EC50 was greater than 2000 nM.

With `Cc1cc(OCC(=O)NC23CC(NC(=O)[C@H]4C[C@@H](O)c5cc(F)c(F)cc5O4)(C2)C3)ccc1F` [Compound 359, (2R,4R)-6,7-difluoro-N-{3-[2-(4-fluoro-3-methylphenoxy)acetamido]bicyclo[1.1.1]pentan-1-yl}-4-hydroxy-3,4-dihydro-2H-1-benzopyran-2-carboxamide], the EC50 was less than 10 nM.

For `O=C(COc1ccc(Cl)c(F)c1)NC12CC(NC(=O)[C@H]3C[C@@H](O)c4cc(Cl)c(F)cc4O3)(C1)C2` (racemic) [Compound 234, rac-(2R,4R)-6-chloro-N-{3-[2-(4-chloro-3-fluorophenoxy)acetamido]bicyclo[1.1.1]pentan-1-yl}-7-fluoro-4-hydroxy-3,4-dihydro-2H-1-benzopyran-2-carboxamide], the EC50 is less than 10 nM.

Consider `CN(C(=O)c1cc(=O)c2cc(Cl)ccc2o1)C12CC(NC(=O)COc3ccc(Cl)c(F)c3)(C1)C2` [Compound 324, 6-chloro-N-{3-[2-(4-chloro-3-fluorophenoxy)acetamido]bicyclo[1.1.1]pentan-1-yl}-N-methyl-4-oxo-4H-1-benzopyran-2-carboxamide], for which the EC50 was in the range of 250 to 500 nM.

Consider `COc1ccc2c(=O)cc(C(=O)NC34CC(NC(=O)COc5ccc(Cl)c(F)c5)(C3)C4)oc2c1` [Compound 283, N-{3-[2-(4-chloro-3-fluorophenoxy)acetamido]bicyclo[1.1.1]pentan-1-yl}-7-methoxy-4-oxo-4H-1-benzopyran-2-carboxamide], for which the EC50 was 10 to 50 nM.

In the case of `O=C(COc1ccc(Cl)c(F)c1)NC12CC(NC(=O)[C@@H]3C[C@H](O)c4cc(Cl)ccc4O3)(C1)C2` [Compound 195, (2S,4S)-6-chloro-N-{3-[2-(4-chloro-3-fluorophenoxy)acetamido]bicyclo[1.1.1]pentan-1-yl}-4-hydroxy-3,4-dihydro-2H-1-benzopyran-2-carboxamide], the EC50 was less than 10 nM.

Consider `O=C(COc1ccc(C(F)(F)F)nc1)NC12CC(NC(=O)[C@H]3CC(=O)c4cc(Cl)ccc4O3)(C1)C2` [Compound 225, (2R)-6-chloro-4-oxo-N-[3-(2-{[6-(trifluoromethyl)pyridin-3-yl]oxy}acetamido)bicyclo[1.1.1]pentan-1-yl]-3,4-dihydro-2H-1-benzopyran-2-carboxamide], for which the EC50 was in the range of 10 to 50 nM.

In the case of `CCC1(O)CC(C(=O)NC23CC(NC(=O)COc4ccc(Cl)c(F)c4)(C2)C3)Oc2ccc(Cl)cc21` (stereo not drawn) [Compound 297, 6-chloro-N-{3-[2-(4-chloro-3-fluorophenoxy)acetamido]bicyclo[1.1.1]pentan-1-yl}-4-ethyl-4-hydroxy-3,4-dihydro-2H-1-benzopyran-2-carboxamide], the EC50 was less than 10 nM.

On to `O=C(NC12CCC(NC(=O)C3CC(=O)c4cc(Cl)ccc4O3)(C1)C2)OCc1ccccc1` (stereo not drawn) [Compound 312, benzyl {4-[(6-chloro-4-oxo-3,4-dihydro-2H-1-benzopyran-2-carbonyl)amino]bicyclo[2.1.1]hexan-1-yl}carbamate], for which the EC50 was 500 to 2000 nM.

For `O=C(COc1ccc(Cl)c(F)c1)NC12CC(NC(=O)C3(F)CC(O)c4cc(Cl)ccc4O3)(C1)C2` (stereo not drawn) [Compound 350, 6-chloro-N-{3-[2-(4-chloro-3-fluorophenoxy)acetamido]bicyclo[1.1.1]pentan-1-yl}-2-fluoro-4-hydroxy-3,4-dihydro-2H-1-benzopyran-2-carboxamide], the EC50 was less than 10 nM.

With `C[C@@]1(O)C[C@@H](C(=O)NC23CC(NC(=O)COc4ccc(Cl)c(F)c4)(C2)C3)Oc2ccc(Cl)cc21` (single isomer, unassigned) [Compound 288], the EC50 is less than 10 nM.

On to `CN1CC(C(=O)NC23CC(NC(=O)COc4ccc(Cl)c(F)c4)(C2)C3)Oc2ccc(Cl)cc21` (single isomer, unassigned) [Compound 104], for which the EC50 was less than 10 nM.

Turning to `O=C(COc1ccc(Cl)c(F)c1)NC12CC(NC(=O)[C@H]3C[C@@H](N[C@H]4C[C@@H](O)C4)c4cc(Cl)ccc4O3)(C1)C2` [Compound 328, (2R,4R)-6-chloro-N-{3-[2-(4-chloro-3-fluorophenoxy)acetamido]bicyclo[1.1.1]pentan-1-yl}-4-{[(1s,3S)-3-hydroxycyclobutyl]amino}-3,4-dihydro-2H-1-benzopyran-2-carboxamide], the EC50 fell in the range of 50 to 250 nM.

As to `O=C(COc1ccc(Cl)c(F)c1)NC12CCC(NC(=O)C3CC(=O)c4cc(Cl)ccc4O3)(C1)C2` (stereo not drawn) [Compound 310, 6-chloro-N-{4-[2-(4-chloro-3-fluorophenoxy)acetamido]bicyclo[2.1.1]hexan-1-yl}-4-oxo-3,4-dihydro-2H-1-benzopyran-2-carboxamide], the EC50 fell in the range of 10 to 50 nM.

`O=C(COc1ccc(Cl)c(F)c1)NC12CC(NC(=O)C3CC(O)c4cc(F)c(Cl)cc4O3)(C1)C2` (stereo not drawn) [Compound 246, 7-chloro-N-{3-[2-(4-chloro-3-fluorophenoxy)acetamido]bicyclo[1.1.1]pentan-1-yl}-6-fluoro-4-hydroxy-3,4-dihydro-2H-1-benzopyran-2-carboxamide]: the EC50 is less than 10 nM.

`O=C(COc1ccc(Cl)c(F)c1)N[C@@H]1C[C@@H]2O[C@H]1C[C@H]2NC(=O)[C@H]1C[C@@H](O)c2cc(Cl)ccc2O1` [Compound 375, (2R,4R)-6-chloro-N-{(1S,2R,4S,5R)-5-[2-(4-chloro-3-fluorophenoxy)acetamido]-7-oxabicyclo[2.2.1]heptan-2-yl}-4-hydroxy-3,4-dihydro-2H-1-benzopyran-2-carboxamide]: the EC50 was less than 10 nM.

As to `O=C(COc1ccc(Cl)c(F)c1)N[C@@H]1C[C@@H]2O[C@H]1C[C@H]2NC(=O)[C@H]1C[C@@H](O)c2cc(Cl)ccc2O1` (racemic) [Compound 370, (2R,4R)-6-chloro-N-{(1RS,2SR,4RS,5SR)-5-[2-(4-chloro-3-fluorophenoxy)acetamido]-7-oxabicyclo[2.2.1]heptan-2-yl}-4-hydroxy-3,4-dihydro-2H-1-benzopyran-2-carboxamide], the EC50 was less than 10 nM.

Consider `O=C(COc1ccc(Cl)c(F)c1)NC12CC(NC(=O)C3CNc4cc(Cl)ccc4O3)(C1)C2` (stereo not drawn) [Compound 113, 6-chloro-N-{3-[2-(4-chloro-3-fluorophenoxy)acetamido]bicyclo[1.1.1]pentan-1-yl}-3,4-dihydro-2H-1,4-benzoxazine-2-carboxamide], for which the EC50 is less than 10 nM.

On to `O=C(NC12CCC(NC(=O)[C@H]3C[C@@H](O)c4cc(Cl)ccc4O3)(CC1)[C@@H](O)C2)c1cc(C(F)F)no1` (single isomer, unassigned) [Compound 215], for which the EC50 is 10 to 50 nM.

For the compound `CC(C)(C)OC(=O)CN1C[C@@H](C(=O)NC23CCC(NC(=O)COc4ccc(Cl)c(F)c4)(CC2)[C@@H](O)C3)Oc2ccc(Cl)cc21` [Compound 184, tert-butyl [(2S)-6-chloro-2-({(3S)-4-[2-(4-chloro-3-fluorophenoxy)acetamido]-3-hydroxybicyclo[2.2.2]octan-1-yl}carbamoyl)-2,3-dihydro-4H-1,4-benzoxazin-4-yl]acetate], the EC50 fell in the range of 250 to 500 nM.

For `C[C@]1(C(=O)NC23CC(NC(=O)COc4ccc(Cl)c(F)c4)(C2)C3)C[C@H](O)c2cc(Cl)ccc2O1` (racemic) [Compound 250, rac-(2R,4S)-6-chloro-N-{3-[2-(4-chloro-3-fluorophenoxy)acetamido]bicyclo[1.1.1]pentan-1-yl}-4-hydroxy-2-methyl-3,4-dihydro-2H-1-benzopyran-2-carboxamide], the EC50 is 50 to 250 nM.

In the case of `O=C(COc1ccc(Cl)c(F)c1)NC12CC(NC(=O)[C@@H]3CC(=O)c4ccccc4O3)(C1)C2` [Compound 269, (2S)—N-{3-[2-(4-chloro-3-fluorophenoxy)acetamido]bicyclo[1.1.1]pentan-1-yl}-4-oxo-3,4-dihydro-2H-1-benzopyran-2-carboxamide], the EC50 lay in the range of 50 to 250 nM.

For `O=C(COc1ccc(Cl)c(F)c1)NC12CCC(NC(=O)[C@H]3C[C@@H](O)c4cc(Cl)ccc4O3)(C1)C2` (racemic) [Compound 296, rac-(2R,4R)-6-chloro-N-{4-[2-(4-chloro-3-fluorophenoxy)acetamido]bicyclo[2.1.1]hexan-1-yl}-4-hydroxy-3,4-dihydro-2H-1-benzopyran-2-carboxamide], the EC50 was less than 10 nM.

In the case of `O=C(COc1ccc(Cl)c(F)c1)NC12CC(NC(=O)[C@@H]3C[C@H](O)c4cc(F)c(Cl)cc4O3)(C1)C2` (single isomer, unassigned) [Compound 205], the EC50 is less than 10 nM.

As for `O=C(NC12CCC(NC(=O)[C@H]3C[C@@H](O)c4cc(Cl)ccc4O3)(CC1)CC2)c1ccc(OC(F)(F)F)cn1` [Compound 361, N-(4-{[(2R,4R)-6-chloro-4-hydroxy-3,4-dihydro-2H-1-benzopyran-2-carbonyl]amino}bicyclo[2.2.2]octan-1-yl)-5-(trifluoromethoxy)pyridine-2-carboxamide], the EC50 fell in the range of 50 to 250 nM.
